{"source": "patent US5714148A", "about": "“Chemical compounds” (Zeneca Limited, priority 1992, dated 1998)", "assay": "Unspecified tests of activity", "details": "tests not specified"}
{"smiles": "O=C(O)CC[C@H](NC(=O)Oc1ccc(N(CCI)CCI)cc1)C(=O)O", "note": "[Example 33]", "values": [{"measurement": "activity in tests", "value": "good activity"}]}
